Results: patent US20260217708A1, “FUSED BENZAZEPINE DERIVATIVES FOR USE IN THE TREATMENT OF CANCER AND EPILEPSY” (UCB BIOPHARMA SRL, priority 2023, published 2026)

How the values were obtained:
system Xc^− [1] = target: T1, system Xc^− (Homo sapiens, UniProt Q9UPY5); assay: Cystine-induced glutamate release assay; type: cell-based; set-up: endogenous in cells; host or cells: H4 cells; conditions: H4 cells, sodium-free HEPES buffer, 50 μM L-Cystine, 2 hours, Amplex Red glutamate readout; read-out: pIC50 Cystine-induced glutamate release assay (converted)
T1 sequence (Q9UPY5 1-501): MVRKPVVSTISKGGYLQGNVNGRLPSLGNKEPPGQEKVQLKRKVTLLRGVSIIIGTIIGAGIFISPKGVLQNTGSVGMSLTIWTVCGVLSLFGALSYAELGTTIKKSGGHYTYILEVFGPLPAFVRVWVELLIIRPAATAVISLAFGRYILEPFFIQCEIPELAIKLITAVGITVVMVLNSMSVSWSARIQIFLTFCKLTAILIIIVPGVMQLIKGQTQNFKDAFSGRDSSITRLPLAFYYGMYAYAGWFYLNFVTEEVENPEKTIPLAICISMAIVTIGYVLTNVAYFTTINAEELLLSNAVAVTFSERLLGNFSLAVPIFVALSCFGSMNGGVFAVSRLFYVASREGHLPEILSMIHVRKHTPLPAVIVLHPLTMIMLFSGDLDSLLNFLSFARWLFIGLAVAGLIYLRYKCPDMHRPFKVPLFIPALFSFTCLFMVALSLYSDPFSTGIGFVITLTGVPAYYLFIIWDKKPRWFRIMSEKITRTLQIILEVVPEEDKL
T1 sequence (P08195 1-529 partner): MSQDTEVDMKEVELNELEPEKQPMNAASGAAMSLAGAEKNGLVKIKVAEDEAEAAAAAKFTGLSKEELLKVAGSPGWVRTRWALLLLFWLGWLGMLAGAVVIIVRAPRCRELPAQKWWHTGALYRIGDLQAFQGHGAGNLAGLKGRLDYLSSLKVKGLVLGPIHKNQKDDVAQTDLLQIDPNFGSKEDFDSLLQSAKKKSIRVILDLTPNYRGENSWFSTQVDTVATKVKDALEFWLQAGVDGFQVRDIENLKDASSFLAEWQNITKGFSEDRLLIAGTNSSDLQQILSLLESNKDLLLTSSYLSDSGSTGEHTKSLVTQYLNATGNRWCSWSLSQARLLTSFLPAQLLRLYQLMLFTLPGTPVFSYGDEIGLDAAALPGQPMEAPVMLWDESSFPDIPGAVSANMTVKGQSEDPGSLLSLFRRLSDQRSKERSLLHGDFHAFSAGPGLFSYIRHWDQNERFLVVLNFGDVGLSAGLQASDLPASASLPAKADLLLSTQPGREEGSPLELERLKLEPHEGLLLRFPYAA
Summary of the method: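 IC50 (reported as pIC50) normalized to DMSO 1% and Erastin 50 μM controls, from Amplex Red fluorescence of glutamate exported into supernatant. H4 cells were washed into sodium-free buffer to exclude EAAT transport, then given compound with 50 μM L-cystine for 2 h in the incubator.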

system Xc^− [2] = target: T1, system Xc^−; assay: [^14C]L-Cystine uptake assay; type: cell-based; set-up: endogenous in cells; host or cells: H4 cells; conditions: H4 cells, sodium-free HEPES buffer, 0.5 μM L-[14C]Cystine and 4.5 μM L-Cystine, 1 hour at 37° C.; read-out: pIC50 [^14C] L-Cystine uptake assay (converted)
Summary of the method: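 Compound effect is given as pIC50, taken between controls of 1% DMSO and 50 μM Erastin. Human H4 cells were pretreated 15 min with compound in sodium-free buffer, then took up 0.5 μM [14C]cystine with 4.5 μM cold cystine for 1 hour at 37° C, read by scintillation proximity counting.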

Compound	IC50 (system Xc^− [1])	IC50 (system Xc^− [2])
CC1C(=O)N(CC(=O)Nc2ccc(C(F)F)cc2)c2cc(OC(F)F)nc(Cl)c2-c2cccnc21 (single isomer, unassigned) [#416, 2-[3-chloro-5-(difluoromethoxy)-10-methyl-9-oxo-4,8,12-triazatricyclo[9.4.0.0^2,7]pentadeca-1(15),2,4,6,11,13-hexaen-8-yl]-N-[4-(difluoromethyl)phenyl]acetamide]	15.8 to 39.8 nM	< 15.8 nM
CC1C(=O)N(CC(=O)Nc2ccc(Cl)c(F)c2)c2cc(Cl)cc(F)c2-c2ncncc21 (single isomer, unassigned) [#418, 2-[9-chloro-11-fluoro-5-methyl-6-oxo-5H-pyrimido[5,4-d][1]benzazepin-7-yl]-N-(4-chloro-3-fluoro-phenyl)acetamide]	39.8 to 100 nM	39.8 to 100 nM
CC1C(=O)N(CC(=O)Nc2ccc(Cl)c(F)c2)c2ccnc(F)c2-c2cc(F)cnc21 (single isomer, unassigned) [#419, N-(4-chloro-3-fluoro-phenyl)-2-[3,14-difluoro-10-methyl-9-oxo-4,8,12-triazatricyclo[9.4.0.0^2,7]pentadeca-1(15),2,4,6,11,13-hexaen-8-yl]acetamide]	15.8 to 39.8 nM	< 15.8 nM
Cc1cc2c(cc1C#N)-c1cc(F)cnc1C(C)C(=O)N2CC(=O)Nc1ccc(C(F)F)cc1 (single isomer, unassigned) [#420, 2-[10-cyano-2-fluoro-5,9-dimethyl-6-oxo-5H-pyrido[2,3-d][1]benzazepin-7-yl]-N-[4-(difluoromethyl)phenyl]acetamide]	< 15.8 nM	< 15.8 nM
Cc1cc2c(c(Cl)n1)-c1cc(F)cnc1C(C)C(=O)N2CC(=O)Nc1ccc(C(C)(F)F)cc1 (single isomer, unassigned) [#423, 2-(3-chloro-14-fluoro-5,10-dimethyl-9-oxo-4,8,12-triazatricyclo[9.4.0.0^2,7]pentadeca-1(11),2,4,6,12,14-hexaen-8-yl)-N-[4-(1,1-difluoroethyl)phenyl]acetamide]	< 15.8 nM	< 15.8 nM
Cc1cc2c(c(Cl)n1)-c1cc(F)cnc1C(C)C(=O)N2CC(=O)Nc1ccc(C(F)(F)F)cn1 (single isomer, unassigned) [#424, 2-(3-chloro-14-fluoro-5,10-dimethyl-9-oxo-4,8,12-triazatricyclo[9.4.0.0^2,7]pentadeca-1(11),2,4,6,12,14-hexaen-8-yl)-N-[5-(trifluoromethyl)-2-pyridyl]acetamide]	15.8 to 39.8 nM	15.8 to 39.8 nM
Cc1cc2c(cc1C)N(CC(=O)Nc1ccc(Cl)c(F)c1)C(=O)Cc1cccnc1-2 [#1, N-(4-chloro-3-fluoro-phenyl)-2-(9,10-dimethyl-6-oxo-5-H-pyrido[3,2-d][1]benzazepin-7-yl)acetamide]	100 to 501 nM	39.8 to 100 nM
Cc1cc2c(cc1C)N(CC(=O)Nc1ccc(Cl)c(F)c1)C(=O)Cc1ccncc1-2 [#2, N-(4-chloro-3-fluoro-phenyl)-2-(9,10-dimethyl-6-oxo-5H-pyrido[4,3-d][1]benzazepin-7-yl)acetamide]	100 to 501 nM	15.8 to 39.8 nM
Cc1cc2c(cc1C)N(CC(=O)Nc1ccc(Cl)c(F)c1)C(=O)Cc1ncccc1-2 [#3, N-(4-chloro-3-fluoro-phenyl)-2-(9,10-dimethyl-6-oxo-5-H-pyrido[2,3-d][1]benzazepin-7-yl)acetamide]	100 to 501 nM	39.8 to 100 nM
Cc1ccc2c(n1)CC(=O)N(CC(=O)Nc1ccc(Cl)c(F)c1)c1cc(C)c(C)cc1-2 [#4, N-(4-chloro-3-fluoro-phenyl)-2-(3,9,10-trimethyl-6-oxo-5-H-pyrido[2,3-d][1]benzazepin-7-yl)acetamide]	100 to 501 nM	100 to 501 nM
Cc1cc2c(cc1C)-n1nccc1CC(=O)N2CC(=O)Nc1ccc(C(F)(F)F)cc1 [#5, 2-(8,9-dimethyl-5-oxo-4H-pyrazolo[5,1-d][1,5]benzodiazepin-6-yl)-N-[4-(trifluoromethyl)phenyl]acetamide]	100 to 501 nM	39.8 to 100 nM
Cc1cc2c(cn1)-c1cnccc1CC(=O)N2CC(=O)Nc1ccc(C(F)(F)F)cc1 [#6, 2-(5-methyl-9-oxo-4,8,14-triazatricyclo[9.4.0.0^2,7]pentadeca-1(11),2(7),3,5,12,14-hexaen-8-yl)-N-[4-(trifluoromethyl)phenyl]acetamide]	100 to 501 nM	100 to 501 nM
O=C(CN1C(=O)Cc2cccnc2-c2cnc(Cl)cc21)Nc1ccc(C(F)(F)F)cc1 [#7, 2-(13-chloro-9-oxo-3,10,14-triazatricyclo[9.4.0.0^2,7]pentadeca-1(11),2(7),3,5,12,14-hexaen-10-yl)-N-[4-(trifluoromethyl)phenyl]acetamide]	100 to 501 nM	39.8 to 100 nM
Cc1cc2c(cc1C)-n1ccnc1CC(=O)N2CC(=O)Nc1ccc(C(F)(F)F)cc1 [#8, 2-(8,9-dimethyl-5-oxo-4H-imidazo[1,2-a][1,5]benzodiazepin-6-yl)-N-[4-(trifluoromethyl)phenyl]acetamide]	100 to 501 nM	39.8 to 100 nM
Cc1cc2c(cc1C)N(CC(=O)Nc1ccc(C(F)(F)F)cc1)C(=O)Cc1cncnc1-2 [#9, 2-(9,10-dimethyl-6-oxo-5H-pyrimido[5,4-d][1]benzazepin-7-yl)-N-[4-(trifluoromethyl)phenyl]acetamide]	100 to 501 nM	39.8 to 100 nM
Cc1cc2c(cc1C)N(CC(=O)Nc1ccc(C(F)(F)F)cc1)C(=O)Cc1ccc(Cl)nc1-2 [#10, 2-(2-chloro-9,10-dimethyl-6-oxo-5H-pyrido[3,2-d][1]benzazepin-7-yl)-N-[4-(trifluoromethyl)phenyl]acetamide]	100 to 501 nM	100 to 501 nM
O=C(CN1C(=O)Cc2ccncc2-c2cnc(Cl)cc21)Nc1ccc(C(F)(F)F)cc1 [#11, 2-(5-chloro-9-oxo-4,8,14-triazatricyclo[9.4.0.0^2,7]pentadeca-1(11),2(7),3,5,12,14-hexaen-8-yl)-N-[4-(trifluoromethyl)phenyl]acetamide]	100 to 501 nM	100 to 501 nM
Cc1cc2c(cn1)-c1ncccc1CC(=O)N2CC(=O)Nc1ccc(C(F)(F)F)cc1 [#12, 2-(13-methyl-9-oxo-3,10,14-triazatricyclo[9.4.0.0^2,7]pentadeca-1(11),2(7),3,5,12,14-hexaen-10-yl)-N-[4-(trifluoromethyl)phenyl]acetamide]	100 to 501 nM	100 to 501 nM
O=C(CN1C(=O)Cc2ccccc2-c2cnc(Cl)cc21)Nc1ccc(C(F)(F)F)cc1 [#13, 2-(3-chloro-6-oxo-7H-pyrido[4,3-d][3]benzazepin-5-yl)-N-[4-(trifluoromethyl)phenyl]acetamide]	100 to 501 nM	39.8 to 100 nM
Cc1cc2c(cn1)-c1ccccc1CC(=O)N2CC(=O)Nc1ccc(C(F)(F)F)cc1 [#14, 2-(3-methyl-6-oxo-7H-pyrido[4,3-d][3]benzazepin-5-yl)-N-[4-(trifluoromethyl)-phenyl]acetamide]	100 to 501 nM	< 15.8 nM
Cc1cc2c(nc1C)-c1ccccc1CC(=O)N2CC(=O)Nc1ccc(C(F)(F)F)cc1 [#15, 2-(2,3-dimethyl-6-oxo-7H-pyrido[3,2-d][3]benzazepin-5-yl)-N-[4-(trifluoro-methyl)phenyl] acetamide]	100 to 501 nM	15.8 to 39.8 nM
O=C(CN1C(=O)Cc2ccccc2-c2ncc(F)cc21)Nc1ccc(C(F)(F)F)cc1 [#16, 2-(3-fluoro-6-oxo-7H-pyrido[3,2-d] [3]benzazepin-5-yl)-N-[4-(trifluoro-methyl)phenyl] acetamide]	100 to 501 nM	100 to 501 nM
O=C(CN1C(=O)Cc2ccccc2-c2cnccc21)Nc1ccc(C(F)(F)F)cc1 [#17, 2-(6-oxo-7H-pyrido [4,3-d][3]benzazepin-5-yl)-N-[4-(trifluoro-methyl)phenyl] acetamide]	100 to 501 nM	100 to 501 nM
